Assay results reported in US9359298B2, “Cajanine structure analogous compound, preparation method and use” (INSTITUTE OF MEDICINAL BIOTECHNOLOGY, CHINESE ACADEMY OF …, priority 2011, dated 2016).
In brackets after ≈: the same amount, converted by molar mass.

Legend:
Format in all cases: cell-based
HCV = assay: Anti-hepatitis C virus (HCV) activity assay (HCV RNA in Huh7.5 cells); details: for EC50: Hepatitis C virus, Huh7.5, 72 h, read-out: HCV EC50; for anti-HCV viral activity: statement in words
Protocol: Inoculate Huh7.5 cells into 96-well plates to a density of 3×10^4 cells/cm^2, culture for 24h, infect the cells with 45 IU/cell HCV supernatant, meanwhile, add drug solutions or solvent control for treatment.

Coxsackie virus B6 = assay: Coxsackie virus activity assay (CPE in Vero cells); details: for IC50: Vero, read-out: COX-B6 IC50, Vero cells, about 100TCID50, CPE, Reed-Muench
HIV-1 III B virus = assay: Anti-HIV activity assay (P24 antigen in MT-4 cells); details: for IC50: Human immunodeficiency virus 1, MT4, 96 h, read-out: HIV IC50; for anti-HIV viral activity: statement in words
[1] = tested on: Influenza A virus (hanfang359/95); assay: Determination of anti-influenza virus activity (CPE in MDCK cells); details: for IC50: Influenza A virus, MDCK, 36 h; for anti-influenza virus activities compared with the lead compound cajanine: statement in words
PC12 cells [2] = assay: Neuroprotective activity assay, rotenone injury to PC12 cells (MTT); details: for viability at 10 µM: Rattus norvegicus, PC-12, 48 h, read-out: rotenone (surviving PC12 cells, MTT 570 nm); for protective effect on rotenone injury to PC12 cells: statement in words
Protocol: (§1) Discard the original culture media from confluent monolayers of PC12 cells (simulated neuronal cells), add DMEM complete medium with 5% FBS, 5% horse serum gently beat upon the cells with a pipette to completely disperse them, inoculate 100 μl cell suspension at a density of […] per well to 96 hole plates treated with poly-lysine (0.1 mg/ml) in advance, culture for 24h. Divide the experimenting cells into control group, model group and dosing groups. Add complete medium to the control group. Model groups includes rotenone group and serum-deprived group, add rotenone to the corresponding modules with a final concentration of 4 μM rotenone to take effect on the cells for 48 h, add serum-deprived groups with serum-free DMEM medium to take effect on the cells for 48 h. Dosing groups also includes two groups, one using rotenone module as model, another using serum-deprived module as model, and both add in 10 μM test compounds during modeling. 48h later, add 10 μl 5 mg/ml MTT, subsequently discard the supernatant 4h later and add in 150 μl DMSO, measure 570 nm absorbance to represent the numbers of surviving cells.

PC12 cells [3] = assay: Neuroprotective activity assay, serum-deprived injury to PC12 cells (MTT); details: for viability at 10 µM: Rattus norvegicus, PC-12, 48 h, read-out: serum-deprived (surviving PC12 cells, MTT 570 nm); for protective effect on serum-deprived injury to PC12 cells: statement in words
Protocol: as §1

[4] = Huh7.5 cells, 72 h, HCV RNA by RT-PCR, Reed-Muench
[5] = MT-4 cells, HIV-1 III B 100TCID50, 96 h, P24 antigen
[6] = 10 μM test compound, 4 μM rotenone, 48 h, Control 100.0 ± 8.9, Model 73.2 ± 7.8
[7] = 10 μM test compound, 48 h, Control 100.0 ± 9.2, Model 69.3 ± 4.1

Row | Structure (SMILES) | EC50 (HCV; [4]) | IC50 (Coxsackie virus B6) | IC50 (HIV-1 III B virus; [5]) | IC50 [1] | viability at 10 µM (PC12 cells [2]; [6]) | viability at 10 µM (PC12 cells [3]; [7]) | HCV EC50 (HCV; [4]) | COX-B6 IC50 (Coxsackie virus B6) | HIV IC50 (HIV-1 III B virus; [5]) | Influenza A virus (hanfang359/95) IC50 [1] | rotenone (surviving PC12 cells, MTT 570 nm) (PC12 cells [2]; [6]) | serum-deprived (surviving PC12 cells, MTT 570 nm) (PC12 cells [3]; [7]) | anti-influenza virus activities compared with the lead compound cajanine [1] | anti-HCV viral activity (HCV) | anti-HIV viral activity (HIV-1 III B virus) | protective effect on rotenone injury to PC12 cells (PC12 cells [2]) | protective effect on serum-deprived injury to PC12 cells (PC12 cells [3])
1 | Oc1cc(O)cc(/C=C/Cc2ccccc2)c1 [Compound 21b, 1,3-dihydroxy-5-[(E)-3-phenylpropen-1-yl]benzene] | 1.47 µg/mL (≈ 6.5 µM) | 3.26 µg/mL (≈ 14.4 µM) | 0.88 µg/mL (≈ 3.89 µM) | 2.54 µg/mL (≈ 11.2 µM) | 78.9 ± 6.8% | 74.6 ± 3.5% |  |  |  |  |  |  |  |  |  |  | 
2 | COc1cc(C=C2CCC(C)CC2)c(C(=O)O)c(O)c1CC=C(C)C (stereo not shown) [Compound 1n, 2-hydroxy-3-isopentenyl-4-methoxy-6-(4′-methyl-cyclohexylenemethyl)benzoic acid] |  |  |  |  |  |  | 2.61 µg/mL | >0.69 µg/mL | 0.99 µg/mL | >6.17 µg/mL | 62.9 ± 2.7 | 17.3 ± 2.4 |  |  |  |  | 
3 | COc1ccnc(/C=C/c2cc(O)c(CC=C(C)C)c(OC)c2)c1 [Compound 10z, 2-isopentenyl-3-methoxy-5-[(E)-2-(4-methoxypyrid-2-yl)ethenyl]phenol] | 1.19 µg/mL (≈ 3.66 µM) | 0.84 µg/mL (≈ 2.58 µM) | 2.83 µg/mL (≈ 8.7 µM) | 0.32 µg/mL (≈ 0.983 µM) | 87 ± 5.1% | 84.6 ± 3.9% |  |  |  |  |  |  | significantly stronger than the lead compound cajanine |  |  |  | 
4 | COc1cc(/C=C/c2ccccc2)c(C(=O)NC(=N)N)c(O)c1CC=C(C)C [Compound 23b, N-amidino-2-hydroxy-3-isopentenyl-4-methoxy-6-[(E)-styryl]benzamide] | 0.53 µg/mL (≈ 1.4 µM) | 0.24 µg/mL (≈ 0.632 µM) | 3.9 µg/mL (≈ 10.3 µM) | 0.13 µg/mL (≈ 0.343 µM) | 81.3 ± 5% | 79.8 ± 4.6% |  |  |  |  |  |  | significantly stronger than the lead compound cajanine | stronger anti-HIV, HCV viral activities | stronger anti-HIV, HCV viral activities |  | 
5 | COc1cc(/C=C/c2ccccc2)c(C(=O)O)c(OCC2CNCCN2)c1CC=C(C)C (stereo not shown) [Compound 26e, 2-(piperazin-2-yl)methoxy-3-isopentenyl-4-methoxy-6-[(E)-styryl]benzoic acid] | 2.28 µg/mL (≈ 5.22 µM) | 1.32 µg/mL (≈ 3.02 µM) | 2.77 µg/mL (≈ 6.35 µM) | 2.31 µg/mL (≈ 5.29 µM) | 87.6 ± 5.6% | 85.6 ± 2.9% |  |  |  |  |  |  |  |  |  |  | 
6 | COc1cc(/C=C/c2ccccc2Cl)c(C(=O)O)c(O)c1CC=C(C)C [Compound 1b, 2-hydroxy-3-isopentenyl-4-methoxy-6-[(E)-2-chlorostyryl]benzoic acid] | 0.67 µg/mL (≈ 1.8 µM) | > 1.03 µg/mL | 1.22 µg/mL (≈ 3.27 µM) | > 18.5 µg/mL | 68.2 ± 8% | 15.7 ± 0.3% |  |  |  |  |  |  |  | stronger anti-HIV, HCV viral activities | stronger anti-HIV, HCV viral activities |  | 
7 | COC(=O)/C(=C\c1cc(OC)c(CC=C(C)C)c(O)c1C(=O)OC)c1ccccc1 [Compound 8s] | 0.84 µg/mL (≈ 2.05 µM) | 3.52 µg/mL (≈ 8.58 µM) | 0.52 µg/mL (≈ 1.27 µM) | 0.24 µg/mL (≈ 0.585 µM) | 76.8 ± 5.4% | 79.8 ± 5.2% |  |  |  |  |  |  |  | stronger anti-HIV, HCV viral activities | stronger anti-HIV, HCV viral activities |  | 
8 | COc1cc(/C=C/C2CCCCC2)cc(O)c1CC=C(C)C [Compound 10p, 2-isopentenyl-3-methoxy-5-[(E)-2-cyclohexylvinyl]phenol] | 2.95 µg/mL (≈ 9.82 µM) | > 6.19 µg/mL | 7.19 µg/mL (≈ 23.9 µM) | 2.65 µg/mL (≈ 8.82 µM) | 86.7 ± 9.1% | 84.6 ± 2.7% |  |  |  |  |  |  |  |  |  | the strongest activities | the strongest activities
9 | COc1cc(/C=C/c2ccccc2)c(C(=O)O)c(OC(=O)c2cccnc2)c1CC=C(C)C [Compound 24k, 2-(pyridyl-3-formylox)-3-isopentenyl-4-methoxy-6-[(E)-styryl]benzoic acid] | 4.87 µg/mL (≈ 11 µM) | 1.36 µg/mL (≈ 3.07 µM) | 2.17 µg/mL (≈ 4.89 µM) | 3.55 µg/mL (≈ 8 µM) | 85.6 ± 2.1% | 89.6 ± 2.3% |  |  |  |  |  |  |  |  |  | the strongest activities | the strongest activities
10 | COc1cc(/C=C/CCc2ccccc2)cc(O)c1CC=C(C)C [Compound 10l, 2-isopentenyl-3-methoxy-5-[(E)-4′-phenylbuten-1′-yl]phenol] | 0.95 µg/mL (≈ 2.95 µM) | > 18.2 µg/mL | 2.2 µg/mL (≈ 6.82 µM) | 0.65 µg/mL (≈ 2.02 µM) | 84.6 ± 6.2% | 81.3 ± 2.9% |  |  |  |  |  |  | significantly stronger than the lead compound cajanine | stronger anti-HIV, HCV viral activities | stronger anti-HIV, HCV viral activities | the strongest activities | the strongest activities
11 | COC(=O)c1c(/C=C(\C)c2ccccc2)cc(OC)c(CC=C(C)C)c1O [Compound 8i, methyl 2-hydroxy-3-isopentenyl-4-methoxy-6-[(E)-2-phenylpropen-1-yl]-benzoate] | 3.47 µg/mL (≈ 9.47 µM) | 6.89 µg/mL (≈ 18.8 µM) | 3.8 µg/mL (≈ 10.4 µM) | > 2.47 µg/mL | 69.4 ± 2.6% | 46.4 ± 16.6% |  |  |  |  |  |  |  |  |  |  | 
12 | COc1cc(/C=C(\C)c2cc(O)cc(O)c2)cc(OC)c1 [Compound 21g, 1,3-dimethoxy-5-[(E)-2-(3,5-dihydroxyphenyl)propen-1-yl]benzene] | 0.9 µg/mL (≈ 3.14 µM) | 6.84 µg/mL (≈ 23.9 µM) | 1.27 µg/mL (≈ 4.44 µM) | 4.25 µg/mL (≈ 14.8 µM) | 82.3 ± 3.1% | 80.2 ± 1.5% |  |  |  |  |  |  |  |  |  |  | 
13 | COc1cccc(/C=C/c2cc(OC)c(CC=C(C)C)c(O)c2C(=O)O)n1 [1b′, 2-hydroxy-3-isopentenyl-4-methoxy-6-[(E)-2-(6-methoxypyrid-2-yl)ethenyl]benzoic acid] | 0.88 µg/mL (≈ 2.38 µM) | 5.98 µg/mL (≈ 16.2 µM) | 3.19 µg/mL (≈ 8.64 µM) | 4.62 µg/mL (≈ 12.5 µM) | 87.2 ± 6.31% | 88.9 ± 1.9% |  |  |  |  |  |  |  | stronger anti-HIV, HCV viral activities | stronger anti-HIV, HCV viral activities |  | 
14 | COC(=O)c1c(/C=C/CCc2ccccc2)cc(OC)c(CC=C(C)C)c1O [Compound 8l, methyl 2-hydroxy-3-isopentenyl-4-methoxy-6-[(E)-4′-phenylbuten-1′-yl]benzoate] | 5.95 µg/mL (≈ 15.6 µM) | > 6.17 µg/mL | 5.17 µg/mL (≈ 13.6 µM) | 5.75 µg/mL (≈ 15.1 µM) | 64.7 ± 1.8% | 51.1 ± 17% |  |  |  |  |  |  |  |  |  |  | 
